System: c-Myc
Assay: c-Myc immunofluorescence assay
Type: cell-based, human
Details: A549 cells, 24 hours, anti-c-Myc immunofluorescence
Method: A549 human non-small cell lung carcinoma cells were treated for 24 hours with increasing compound concentration, cells were fixed and stained with a nuclei stain (DAPI) and anti-c-Myc fluorescent antibody. The c-Myc signal was quantified by image analysis, and data was exported and analyzed using TIBCO Spotfire® (TIBCO Corporation). Dose response curves were generated and fitted with logaristic regression to calculate potency (EC50 values). Potency values are presented in Table 2 for all compounds and are shown for selected compounds (FIG. 3).
A549 cells were grown in 384-wells plates (Perkin Elmer, Cat. 6057300) for 48 hours, treated with compounds and then fixed for 20 min in 4% paraformaldehyde. After that permeabilization was done using 0.1% Triton X-100 in PBS for 20 min. Primary anti-c-Myc antibody (Abcam, ab32072) staining was performed for 90 min at room temperature. Cells then were washed twice with PBS and incubated with secondary antibody (Abcam, ab150075) for 90 min at room temperature. Nuclei were stained with DAPI for 10 min and washed twice with PBS.
Cell images were taken with Operetta (Perkin Elmer, USA), a wide-field fluorescence microscope at 20× magnification. After acquisition, the images were transferred to Columbus software (Perkin-Elmer) for image analysis. In Columbus, cells were identified by their nucleus, using the “Find Nuceli” module and cytoplasm was detected based on the secondary antibody channel. Subsequently, the fluorescent signal was enumerated in the identified cell region. Then data was exported to a data analysis and visualization software, Tibco Spotfire, USA.

SMILES	Myc Efficacy (−LogEC50)
COc1ccc(-c2cccc(N3CCC(C(=O)NCC4CCN(Cc5ccc(C)cc5)C4)CC3)c2)cc1 (centres unmarked) [Compound 171, 1-(4′-methoxy-[1,1′-biphenyl]-3-yl)-N-((1-(4-methylbenzyl)pyrrolidin-3-yl)methyl)piperidine-4-carboxamide]	++ (++ ≥5 and <6)
COc1ccc(-c2noc(N3CCC(C(=O)NCCCN4CCCCC4)CC3)n2)cc1 [Compound 101, 1-(3-(4-methoxyphenyl)-1,2,4-oxadiazol-5-yl)-N-(3-(piperidin-1-yl)propyl)piperidine-4-carboxamide]	+ (+ >3 and <5)
COc1ccc(-c2noc(N3CCN(C(=O)N4CCC(OC)CC4)CC3)n2)cc1 [Compound 190, (4-(3-(4-methoxyphenyl)-1,2,4-oxadiazol-5-yl)piperazin-1-yl)(4-methoxypiperidin-1-yl)methanone]	+ (+ >3 and <5)
Cc1ccc(CN2CCC(CNC(=O)C3CCN(c4nc(-c5ccc(C#N)cc5)no4)CC3)C2)cc1 (centres unmarked) [Compound 158, 1-(3-(4-cyanophenyl)-1,2,4-oxadiazol-5-yl)-N-((1-(4-methylbenzyl)pyrrolidin-3-yl)methyl)piperidine-4-carboxamide]	++ (++ ≥5 and <6)
COc1ccc(-c2noc(N3CCC(c4ccccc4)CC3)n2)cc1 [Compound 136, 3-(4-methoxyphenyl)-5-(4-phenylpiperidin-1-yl)-1,2,4-oxadiazole]	− (− ≤3)
COc1ccc(-c2noc(N3CCC(C(=O)NCC4CCN(Cc5ccccc5C)C4)CC3)n2)cc1 (centres unmarked) [Compound 328, 1-(3-(4-methoxyphenyl)-1,2,4-oxadiazol-5-yl)-N-((1-(2-methylbenzyl)pyrrolidin-3-yl)methyl)piperidine-4-carboxamide]	++ (++ ≥5 and <6)
COc1ccc(-c2noc(N3CCN(C(=O)N4CCS(=O)(=O)CC4)CC3)n2)cc1 [Compound 146, (1,1-dioxidothiomorpholino)(4-(3-(4-methoxyphenyl)-1,2,4-oxadiazol-5-yl)piperazin-1-yl)methanone]	+ (+ >3 and <5)
COc1ccc(-c2noc(N3CCC(C(=O)NC4CCOCC4)CC3)n2)cc1 [Compound 254, 1-(3-(4-methoxyphenyl)-1,2,4-oxadiazol-5-yl)-N-(tetrahydro-2H-pyran-4-yl)piperidine-4-carboxamide]	+ (+ >3 and <5)
COc1cccc(-c2noc(N3CCC(C(=O)NCC4CCN(Cc5ccc(C)cc5)C4)CC3)n2)c1 (centres unmarked) [Compound 187, 1-(3-(3-methoxyphenyl)-1,2,4-oxadiazol-5-yl)-N-((1-(4-methylbenzyl)pyrrolidin-3-yl)methyl)piperidine-4-carboxamide]	++ (++ ≥5 and <6)
COc1ccc(-c2noc(N3CCC(C(=O)NCc4ccncc4)CC3)n2)cc1 [Compound 161, 1-(3-(4-methoxyphenyl)-1,2,4-oxadiazol-5-yl)-N-(pyridin-4-ylmethyl)piperidine-4-carboxamide]	+ (+ >3 and <5)
C#Cc1ccc(CN2CCC(CNC(=O)C3CCN(c4nc(-c5ccc(OC)cc5)no4)CC3)C2)cc1 (centres unmarked) [Compound 378, N-((1-(4-ethynylbenzyl)pyrrolidin-3-yl)methyl)-1-(3-(4-methoxyphenyl)-1,2,4-oxadiazol-5-yl)piperidine-4-carboxamide]	++ (++ ≥5 and <6)
COc1ccccc1-c1noc(N2CCC(C(=O)NCC3CCN(Cc4ccc(C)cc4)C3)CC2)n1 (centres unmarked) [Compound 189, 1-(3-(2-methoxyphenyl)-1,2,4-oxadiazol-5-yl)-N-((1-(4-methylbenzyl)pyrrolidin-3-yl)methyl)piperidine-4-carboxamide]	+ (+ >3 and <5)
COc1ccc(-c2noc(N3CCC(C(=O)NCC4OCCc5ccccc54)CC3)n2)cc1 (centres unmarked) [Compound 303, N-(isochroman-1-ylmethyl)-1-(3-(4-methoxyphenyl)-1,2,4-oxadiazol-5-yl)piperidine-4-carboxamide]	+ (+ >3 and <5)
O=C(NCCCN1CCC(Cc2ccccc2)CC1)C1CCN(c2nc(-c3ccc(OC(F)F)cc3)no2)CC1 [Compound 240, N-(3-(4-benzylpiperidin-1-yl)propyl)-1-(3-(4-(difluoromethoxy)phenyl)-1,2,4-oxadiazol-5-yl)piperidine-4-carboxamide]	+++ (+++ ≥6)
COc1ccc(-c2noc(N3CCC(C(=O)NCCCN(C)c4ccccc4)CC3)n2)cc1 [Compound 130, 1-(3-(4-methoxyphenyl)-1,2,4-oxadiazol-5-yl)-N-(3-(methyl(phenyl)amino)propyl)piperidine-4-carboxamide]	+ (+ >3 and <5)
C#CCCC1(CCOc2cccc(-c3noc(N4CCC(C(=O)NCC5CCN(Cc6ccc(C)cc6)C5)CC4)n3)c2)N=N1 (centres unmarked) [Compound 288, 1-(3-(3-(2-(3-(but-3-yn-1-yl)-3H-diazirin-3-yl)ethoxy)phenyl)-1,2,4-oxadiazol-5-yl)-N-((1-(4-methylbenzyl)pyrrolidin-3-yl)methyl)piperidine-4-carboxamide]	++ (++ ≥5 and <6)
COc1ccc(-c2noc(N3CCC(C(=O)NCC4CCN(CC5CCC5)C4)CC3)n2)cc1 (centres unmarked) [Compound 336, N-((1-(cyclobutylmethyl)pyrrolidin-3-yl)methyl)-1-(3-(4-methoxyphenyl)-1,2,4-oxadiazol-5-yl)piperidine-4-carboxamide]	++ (++ ≥5 and <6)
Cc1ccc(CN2CCC(CNC(=O)C3CCN(c4nc(-c5ccc(OCCO)cc5)no4)CC3)C2)cc1 (centres unmarked) [Compound 463, 1-(3-(4-(2-hydroxyethoxy)phenyl)-1,2,4-oxadiazol-5-yl)-N-((1-(4-methylbenzyl)pyrrolidin-3-yl)methyl)piperidine-4-carboxamide]	+ (+ >3 and <5)
O=C(NCCCN1CCC(Cc2ccccc2)CC1)C1CCN(c2nc(-c3ccc(OC(F)(F)F)cc3)no2)CC1 [Compound 239, N-(3-(4-benzylpiperidin-1-yl)propyl)-1-(3-(4-(trifluoromethoxy)phenyl)-1,2,4-oxadiazol-5-yl)piperidine-4-carboxamide]	+++ (+++ ≥6)
COc1ccc(-c2noc(N3CCC(C(=O)NCC4CCN(Cc5ccc(C)cc5)C4)CC3)n2)cc1 (centres unmarked) [Compound 105, 1-(3-(4-methoxyphenyl)-1,2,4-oxadiazol-5-yl)-N-((1-(4-methylbenzyl)pyrrolidin-3-yl)methyl)piperidine-4-carboxamide]	++ (++ ≥5 and <6)
COc1ccc(-c2noc(N3CCC(C(=O)NCC4CCN(CCC(C)C)C4)CC3)n2)cc1 (centres unmarked) [Compound 411, N-((1-isopentylpyrrolidin-3-yl)methyl)-1-(3-(4-methoxyphenyl)-1,2,4-oxadiazol-5-yl)piperidine-4-carboxamide]	++ (++ ≥5 and <6)
COc1ccc(-c2noc(N3CCC(C(=O)N[C@H]4c5ccccc5C[C@H]4O)CC3)n2)cc1 [Compound 259, N-((1S,2R)-2-hydroxy-2,3-dihydro-1H-inden-1-yl)-1-(3-(4-methoxyphenyl)-1,2,4-oxadiazol-5-yl)piperidine-4-carboxamide]	+ (+ >3 and <5)
CC(=O)Nc1cccc(-c2noc(N3CCC(C(=O)NCC4CCN(Cc5ccc(C)cc5)C4)CC3)n2)c1 (centres unmarked) [Compound 230, 1-(3-(3-acetamidophenyl)-1,2,4-oxadiazol-5-yl)-N-((1-(4-methylbenzyl)pyrrolidin-3-yl)methyl)piperidine-4-carboxamide]	+ (+ >3 and <5)
COc1ccc(-c2noc(C3CCC(C(=O)NCC4CCN(CCO)C4)CC3)n2)cc1 (centres unmarked) [Compound 197, (1r,4r)-N-((1-(2-hydroxyethyl)pyrrolidin-3-yl)methyl)-4-(3-(4-methoxyphenyl)-1,2,4-oxadiazol-5-yl)cyclohexane-1-carboxamide]	+ (+ >3 and <5)
COc1ccc(-c2noc(N3CCN(C(=O)N4CCC(Oc5ccccc5)CC4)CC3)n2)cc1 [Compound 216, (4-(3-(4-methoxyphenyl)-1,2,4-oxadiazol-5-yl)piperazin-1-yl)(4-phenoxypiperidin-1-yl)methanone]	+ (+ >3 and <5)
CN1CCC[C@H](CN2CC[C@@H](CNC(=O)C3CCN(c4nc(-c5ccc(Cl)cc5)no4)CC3)C2)C1 (single isomer, unassigned) [Compound 470]	++ (++ ≥5 and <6)
COc1ccc(-c2noc(N3CCC(C(=O)NCCCN4CCC(Cc5ccccc5)CC4)CC3)n2)cc1 [Compound 152, N-(3-(4-benzylpiperidin-1-yl)propyl)-1-(3-(4-methoxyphenyl)-1,2,4-oxadiazol-5-yl)piperidine-4-carboxamide]	+++ (+++ ≥6)
COc1ccc(-c2noc(N3CCC(C(=O)NCC4(c5ccccc5)CCOCC4)CC3)n2)cc1 [Compound 273, 1-(3-(4-methoxyphenyl)-1,2,4-oxadiazol-5-yl)-N-((4-phenyltetrahydro-2H-pyran-4-yl)methyl)piperidine-4-carboxamide]	− (− ≤3)
CN1CCC[C@@H](CN2CC[C@@H](CNC(=O)C3CCN(c4nc(-c5ccc(Cl)cc5)no4)CC3)C2)C1 [Compound 474, 1-(3-(4-chlorophenyl)-1,2,4-oxadiazol-5-yl)-N-(((S)-1-(((R)-1-methylpiperidin-3-yl)methyl)pyrrolidin-3-yl)methyl)piperidine-4-carboxamide]	++ (++ ≥5 and <6)
